Molecular target: T1, Calpain-1 catalytic subunit (Homo sapiens) (UniProt P07384)
T1 sequence (whole entry): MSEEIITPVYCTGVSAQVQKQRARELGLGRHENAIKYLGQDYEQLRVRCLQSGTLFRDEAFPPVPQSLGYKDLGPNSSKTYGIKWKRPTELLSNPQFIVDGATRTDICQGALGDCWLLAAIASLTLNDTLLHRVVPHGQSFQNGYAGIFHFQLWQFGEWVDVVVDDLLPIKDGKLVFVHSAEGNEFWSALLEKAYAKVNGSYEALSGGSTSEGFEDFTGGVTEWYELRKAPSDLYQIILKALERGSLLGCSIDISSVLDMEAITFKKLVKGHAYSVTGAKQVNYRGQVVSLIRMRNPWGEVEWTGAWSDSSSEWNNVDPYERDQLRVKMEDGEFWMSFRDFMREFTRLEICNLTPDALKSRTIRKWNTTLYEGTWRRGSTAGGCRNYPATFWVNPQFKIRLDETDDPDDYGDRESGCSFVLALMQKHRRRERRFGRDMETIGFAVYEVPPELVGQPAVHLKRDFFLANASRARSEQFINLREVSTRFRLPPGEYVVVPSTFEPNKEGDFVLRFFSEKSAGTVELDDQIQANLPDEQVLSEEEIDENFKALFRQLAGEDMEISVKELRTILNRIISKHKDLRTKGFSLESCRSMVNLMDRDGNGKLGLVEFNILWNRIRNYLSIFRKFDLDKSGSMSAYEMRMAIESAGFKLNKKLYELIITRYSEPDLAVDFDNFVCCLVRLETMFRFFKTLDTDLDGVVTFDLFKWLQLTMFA
Assay: Inhibitory activity against human recombinant Calpain 1 at a concentration of 10 uM

SMILES	inhibition [%]
CC(C)C[C@H](NC(=O)OCc1ccccc1)C(=O)N[C@@H](CC(C)C)C(=O)N[C@@H](Cc1ccccc1)C(=O)c1nccs1	54
CC(C)C[C@H](NC(=O)OCc1ccccc1)C(=O)N[C@@H](CC(C)C)C(=O)c1nccn1COCC[Si](C)(C)C	0
CC(C)C[C@H](NC(=O)OCc1ccccc1)C(=O)N[C@@H](CC(C)C)C(=O)C1N=NN=N1	11
CC(C)C[C@H](NC(=O)OC(C)(C)C)C(=O)N[C@@H](CC(C)C)C(=O)c1ncc[nH]1	77
CC(C)C[C@H](NC(=O)OCc1ccccc1)C(=O)N[C@@H](CC(C)C)C(=O)c1nccn1Cc1ccccc1	39
CC(C)C[C@H](NC(=O)OCc1ccccc1)C(=O)N[C@@H](CC(C)C)C(=O)c1ncc[nH]1	0

— ChEMBL document CHEMBL1151500, “Inhibition of calpain by peptidyl heterocycles” (Bioorg Med Chem Lett, 1996)
